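A five-concentration, 48-hour dose response in 96-well plates underlies each endpoint, interpolated linearly between surrounding concentrations. GI50 = concentration required for 50% inhibition of growth. Definition used: TGI = concentration required for complete inhibition of growth.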
Key:
Test in all cases: growth of human tumour cells (NCI), 48 h
HL-60(TB) leukemia = tested on: HL-60(TB) leukemia
SN12C renal = tested on: SN12C renal
COLO 205 colon = tested on: COLO 205 colon
SF-539 CNS = tested on: SF-539 CNS
CAKI-1 renal = tested on: CAKI-1 renal
NCI/ADR-RES ovarian = tested on: NCI/ADR-RES ovarian
SNB-75 CNS = tested on: SNB-75 CNS
MALME-3M melanoma = tested on: MALME-3M melanoma
MCF7 breast = tested on: MCF7 breast
HT29 colon = tested on: HT29 colon
RPMI-8226 leukemia = tested on: RPMI-8226 leukemia
UO-31 renal = tested on: UO-31 renal
KM12 colon = tested on: KM12 colon
HCT-116 colon = tested on: HCT-116 colon
NCI-H23 lung = tested on: NCI-H23 lung
K-562 leukemia = tested on: K-562 leukemia
LOX IMVI melanoma = tested on: LOX IMVI melanoma
UACC-257 melanoma = tested on: UACC-257 melanoma
A498 renal = tested on: A498 renal
NCI-H522 lung = tested on: NCI-H522 lung
UACC-62 melanoma = tested on: UACC-62 melanoma
SF-295 CNS = tested on: SF-295 CNS
NCI-H226 lung = tested on: NCI-H226 lung
HCT-15 colon = tested on: HCT-15 colon
NCI-H460 lung = tested on: NCI-H460 lung
SK-MEL-2 melanoma = tested on: SK-MEL-2 melanoma
SK-MEL-28 melanoma = tested on: SK-MEL-28 melanoma
SR leukemia = tested on: SR leukemia
EKVX NSCLC = tested on: EKVX NSCLC
MOLT-4 leukemia = tested on: MOLT-4 leukemia
SNB-19 CNS = tested on: SNB-19 CNS
HOP-62 NSCLC = tested on: HOP-62 NSCLC
CCRF-CEM leukemia = tested on: CCRF-CEM leukemia
HOP-92 NSCLC = tested on: HOP-92 NSCLC
T-47D breast = tested on: T-47D breast
SW-620 colon = tested on: SW-620 colon
SF-268 CNS = tested on: SF-268 CNS
SK-MEL-5 melanoma = tested on: SK-MEL-5 melanoma
OVCAR-4 ovarian = tested on: OVCAR-4 ovarian
SK-OV-3 ovarian = tested on: SK-OV-3 ovarian
DU-145 prostate = tested on: DU-145 prostate
OVCAR-5 ovarian = tested on: OVCAR-5 ovarian
786-0 renal = tested on: 786-0 renal
PC-3 prostate = tested on: PC-3 prostate
A549 NSCLC = tested on: A549 NSCLC
M14 melanoma = tested on: M14 melanoma
RXF 393 renal = tested on: RXF 393 renal
MDA-MB-435 = tested on: MDA-MB-435
TK-10 renal = tested on: TK-10 renal
IGROV1 ovarian = tested on: IGROV1 ovarian
OVCAR-3 ovarian = tested on: OVCAR-3 ovarian
HS 578T breast = tested on: HS 578T breast
U251 CNS = tested on: U251 CNS
OVCAR-8 ovarian = tested on: OVCAR-8 ovarian
ACHN renal = tested on: ACHN renal

CCOC(=O)c1sc2nc3sc(N=Nc4ccc(Cl)cc4)c(O)n3c(=S)c2c1C
GI50 (HL-60(TB) leukemia): > 100 µM | TGI (HL-60(TB) leukemia): > 100 µM | GI50 (SN12C renal): 15.5 µM | TGI (SN12C renal): 46.5 µM | GI50 (COLO 205 colon): 17.7 µM | TGI (COLO 205 colon): > 100 µM | GI50 (SF-539 CNS): 25.1 µM | TGI (SF-539 CNS): 50.5 µM | GI50 (CAKI-1 renal): 28.1 µM | TGI (CAKI-1 renal): 57.3 µM | GI50 (NCI/ADR-RES ovarian): 17.4 µM | TGI (NCI/ADR-RES ovarian): 44.6 µM | GI50 (SNB-75 CNS): 15.5 µM | TGI (SNB-75 CNS): > 100 µM | GI50 (MALME-3M melanoma): 34.9 µM | TGI (MALME-3M melanoma): 95 µM | GI50 (MCF7 breast): 21.4 µM | TGI (MCF7 breast): > 100 µM | GI50 (HT29 colon): 36.9 µM | TGI (HT29 colon): > 100 µM | GI50 (RPMI-8226 leukemia): 21.4 µM | TGI (RPMI-8226 leukemia): > 100 µM | GI50 (UO-31 renal): 53.6 µM | TGI (UO-31 renal): > 100 µM | GI50 (KM12 colon): 31.2 µM | TGI (KM12 colon): > 100 µM | GI50 (HCT-116 colon): 33.8 µM | TGI (HCT-116 colon): > 100 µM | GI50 (NCI-H23 lung): 14.2 µM | TGI (NCI-H23 lung): 42.4 µM | GI50 (K-562 leukemia): > 100 µM | TGI (K-562 leukemia): > 100 µM | GI50 (LOX IMVI melanoma): 26.1 µM | TGI (LOX IMVI melanoma): 87.1 µM | GI50 (UACC-257 melanoma): 23.4 µM | TGI (UACC-257 melanoma): 60.6 µM | GI50 (A498 renal): 24.1 µM | TGI (A498 renal): 62.5 µM | GI50 (NCI-H522 lung): 38.8 µM | TGI (NCI-H522 lung): > 100 µM | GI50 (UACC-62 melanoma): 13 µM | TGI (UACC-62 melanoma): 32.5 µM | GI50 (SF-295 CNS): 31 µM | TGI (SF-295 CNS): > 100 µM | TGI (NCI-H226 lung): 21.6 µM | GI50 (HCT-15 colon): 18.3 µM | TGI (HCT-15 colon): 49.3 µM | GI50 (NCI-H460 lung): 25.9 µM | TGI (NCI-H460 lung): > 100 µM | GI50 (SK-MEL-2 melanoma): > 100 µM | TGI (SK-MEL-2 melanoma): > 100 µM | GI50 (SK-MEL-28 melanoma): 28.4 µM | TGI (SK-MEL-28 melanoma): > 100 µM | GI50 (SR leukemia): > 100 µM | TGI (SR leukemia): > 100 µM | GI50 (EKVX NSCLC): 5.43 µM | TGI (EKVX NSCLC): 39.6 µM | GI50 (MOLT-4 leukemia): > 100 µM | TGI (MOLT-4 leukemia): > 100 µM | GI50 (SNB-19 CNS): 27.4 µM | TGI (SNB-19 CNS): > 100 µM | GI50 (HOP-62 NSCLC): 30.3 µM | TGI (HOP-62 NSCLC): > 100 µM | GI50 (CCRF-CEM leukemia): 32.2 µM | TGI (CCRF-CEM leukemia): > 100 µM | GI50 (HOP-92 NSCLC): 7.47 µM | TGI (HOP-92 NSCLC): 45.8 µM | GI50 (T-47D breast): 0.609 µM | TGI (T-47D breast): 21.9 µM | GI50 (SW-620 colon): 35.4 µM | TGI (SW-620 colon): > 100 µM | GI50 (SF-268 CNS): 19.7 µM | TGI (SF-268 CNS): 82 µM | GI50 (SK-MEL-5 melanoma): 17.1 µM | TGI (SK-MEL-5 melanoma): 35.8 µM | GI50 (OVCAR-4 ovarian): 47.4 µM | TGI (OVCAR-4 ovarian): > 100 µM | GI50 (SK-OV-3 ovarian): 31 µM | TGI (SK-OV-3 ovarian): > 100 µM | GI50 (DU-145 prostate): 31.2 µM | TGI (DU-145 prostate): > 100 µM | GI50 (OVCAR-5 ovarian): 36.9 µM | TGI (OVCAR-5 ovarian): > 100 µM | GI50 (786-0 renal): 32.4 µM | TGI (786-0 renal): > 100 µM | GI50 (PC-3 prostate): 21.3 µM | TGI (PC-3 prostate): > 100 µM | GI50 (A549 NSCLC): 35 µM | TGI (A549 NSCLC): > 100 µM | GI50 (M14 melanoma): 33.2 µM | TGI (M14 melanoma): > 100 µM | GI50 (RXF 393 renal): 20.6 µM | TGI (RXF 393 renal): 90.4 µM | GI50 (MDA-MB-435): 35.2 µM | TGI (MDA-MB-435): > 100 µM | GI50 (TK-10 renal): 25.9 µM | TGI (TK-10 renal): 96.4 µM | GI50 (IGROV1 ovarian): > 100 µM | TGI (IGROV1 ovarian): > 100 µM | GI50 (OVCAR-3 ovarian): 36.7 µM | TGI (OVCAR-3 ovarian): > 100 µM | GI50 (HS 578T breast): 23.8 µM | TGI (HS 578T breast): 68.4 µM | GI50 (U251 CNS): 29.1 µM | TGI (U251 CNS): > 100 µM | GI50 (OVCAR-8 ovarian): 29.4 µM | TGI (OVCAR-8 ovarian): 95.6 µM | GI50 (ACHN renal): 16.5 µM | TGI (ACHN renal): 54.3 µM
